For one experiment, the target named is PTGER2 (EP2) (Homo sapiens (Human), UniProt P43116). Put plainly: hEP2 b-arrestin assay (PathHunter HEK 293 PTGER2 b-arrestin cells). It is filed as cell-based. An excerpt:
(§1) The assay is using the PathHunter™ HEK 293 PTGER2 and PTGER4 b-arrestin cell lines from DiscoverX. The system is based on the Enzyme Fragment Complementation Technology. Two complementing fragments of the b-galactosidase enzyme are expressed within stably transfected cells. The larger portion of b-gal, termed EA for Enzyme Acceptor, is fused to the C-terminus of b-arrestin 2. The smaller fragment, termed ProLink™ tag, is fused to PTGER2 (EP2) or PTRGER4 (EP4) at the C-terminus. Upon activation, b-arrestin is recruited which forces the interaction of ProLink and EA, allowing complementation of the two fragments of b-gal and the formation of a functional enzyme which is capable of hydrolysing the substrate and generating a chemiluminescent signal.
(§2) 5000 cells per well of a 384 well plate (white with white bottom Greiner 781080) are seeded in 20 ul per well of GM. Plate is incubated at 37° C., 5% C02 for 24 hours.
Plate is pre-incubated 15 minutes at 37° C. Then five microliters of PGE2 (final conc. 5 μM) are transferred into the assay plate. Plate is incubated 120 minutes at 37° C.
Twelve μl of reagent are transferred to the assay plate and incubate for 1 hour at room temperature in the dark. Luminescence counts are read on a BMG Fluostar Optima reader according to manufacturer's instructions. For each compound concentration calculate of the percentage of activity compared to DMSO control value as average±STDEV. (each concentration is measured in duplicate)

In another experiment the target is PTRGER4 (EP4) (Homo sapiens (Human), UniProt P35408). Put plainly: hEP4 b-arrestin assay (PathHunter HEK 293 PTGER4 b-arrestin cells). It is filed as cell-based.
From the text: as §1, §2
Plate is pre-incubated 15 minutes at 37° C. Then five microliters of PGE2 (final conc. 20 nM) are transferred into the assay plate. Plate is incubated 120 minutes at 37° C.
Twelve μl of reagent are transferred to the assay plate and incubate for 1 hour at room temperature in the dark. Luminescence counts are read on a BMG Fluostar Optima reader according to manufacturer's instructions. For each compound concentration calculate of the percentage of activity compared to DMSO control value as average±STDEV.

The mark [1] stands for this setting: hEP2 b-arrestin assay (values without asterisk).
[2] abbreviates: hEP4 b-arrestin assay (values without asterisk).
Setting [3] is: antagonistic activity on hEP2, mean where measured multiple times.
The mark [4] stands for this setting: antagonistic activity on hEP4, mean where measured multiple times.

PTGER2 (EP2), sequence (P43116 whole entry, the tested form may be a part): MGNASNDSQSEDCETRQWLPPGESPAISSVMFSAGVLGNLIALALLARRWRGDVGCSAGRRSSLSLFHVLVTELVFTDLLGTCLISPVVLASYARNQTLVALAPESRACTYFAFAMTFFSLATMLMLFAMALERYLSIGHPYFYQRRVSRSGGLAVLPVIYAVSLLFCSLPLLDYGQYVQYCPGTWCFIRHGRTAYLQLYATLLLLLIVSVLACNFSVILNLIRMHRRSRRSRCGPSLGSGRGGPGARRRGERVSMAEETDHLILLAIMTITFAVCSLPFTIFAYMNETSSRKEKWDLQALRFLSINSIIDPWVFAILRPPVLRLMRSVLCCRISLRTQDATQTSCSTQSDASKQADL
PTRGER4 (EP4), sequence (P35408 whole entry, looked up): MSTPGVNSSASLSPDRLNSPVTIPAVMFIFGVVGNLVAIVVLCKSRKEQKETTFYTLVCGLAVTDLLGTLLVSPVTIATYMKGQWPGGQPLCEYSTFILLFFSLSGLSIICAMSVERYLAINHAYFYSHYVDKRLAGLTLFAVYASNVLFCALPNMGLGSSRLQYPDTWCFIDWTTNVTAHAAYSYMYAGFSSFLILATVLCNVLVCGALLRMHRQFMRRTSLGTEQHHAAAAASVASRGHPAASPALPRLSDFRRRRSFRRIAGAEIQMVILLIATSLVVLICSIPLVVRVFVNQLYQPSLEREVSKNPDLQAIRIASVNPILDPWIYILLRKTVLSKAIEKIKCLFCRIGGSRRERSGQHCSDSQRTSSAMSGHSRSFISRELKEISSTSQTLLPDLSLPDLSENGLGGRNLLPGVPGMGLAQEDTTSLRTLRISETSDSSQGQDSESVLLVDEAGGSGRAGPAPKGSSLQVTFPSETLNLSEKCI

As a reminder, the IC50 is the concentration needed to halve the response being measured. A high value points to weaker potency in that assay. As for “4-{6-[2-(2-Cyano-7-fluoro-4-methoxy-indol-1-yl)-ethylamino]-pyrimidin-4-yl}-phthalic acid 2-ethyl ester [Example 965]”, the IC50 on PTGER2 (EP2) (setting [1]) was found to be 53 nM; against PTRGER4 (EP4) (setting [2]) it was 43 nM.

With “5-{6-[2-(6-Fluoro-4-methoxy-2-methyl-indol-1-yl)-ethylamino]-pyrimidin-4-yl}-thiophen-3-ol [Example 801]”, the IC50 at PTGER2 (EP2) (setting [1]) was determined as 20 nM; against PTRGER4 (EP4) (setting [2]) it was 139 nM.

Consider `CCOc1cc(-c2cc(NCC(C)n3c(C)cc4c(OC)ccc(F)c43)ncn2)sc1C(=O)O` (racemic) [Example 796, rac-3-Ethoxy-5-{6-[2-(7-fluoro-4-methoxy-2-methyl-indol-1-yl)-propylamino]-pyrimidin-4-yl}-thiophene-2-carboxylic acid], for which the IC50 at PTGER2 (EP2) (setting [1]) is 48 nM; at PTRGER4 (EP4) (setting [2]), 131 nM.

As for `CCOc1cc(-c2cc(NC(C)Cn3c(C)cc4c(OC)ccc(F)c43)ncn2)sc1C(=O)O` (racemic) [Example 797, rac-3-Ethoxy-5-{6-[2-(7-fluoro-4-methoxy-2-methyl-indol-1-yl)-1-methyl-ethylamino]-pyrimidin-4-yl}-thiophene-2-carboxylic acid], the IC50 against PTGER2 (EP2) (setting [1]) came to 33 nM; at PTRGER4 (EP4) (setting [2]) it was 64 nM.

As to `CCOc1cc(-c2cc(NCCn3c(C)cc4c(OC)ccc(F)c43)ncn2)ccc1NC(C)C(=O)O` (racemic) [Example 839, rac-2-(2-Ethoxy-4-{6-[2-(7-fluoro-4-methoxy-2-methyl-indol-1-yl)-ethylamino]-pyrimidin-4-yl}-phenylamino)-propionic acid], the IC50 against PTGER2 (EP2) (setting [1]) is 3 nM; against PTRGER4 (EP4) (setting [2]) it was 44 nM.

As for `CCOc1cc(-c2cc(NCCn3c(C)cc4c(OC)ccc(F)c43)ncn2)ccc1OC(C)C(=O)O` (racemic) [Example 843, rac-2-(2-Ethoxy-4-{6-[2-(7-fluoro-4-methoxy-2-methyl-indol-1-yl)-ethylamino]-pyrimidin-4-yl}-phenoxy)-propionic acid], the results for the IC50 on PTGER2 (EP2) (setting [1]) and against PTRGER4 (EP4) (setting [2]) were 11 nM and 111 nM, respectively.

Consider `COc1ccc(F)c2c1cc(C#N)n2CCNc1cc(-c2ccc(C(O)CO)cc2)ncn1` (racemic) [Example 862, rac-1-(2-{6-[4-(1,2-Dihydroxy-ethyl)-phenyl]-pyrimidin-4-ylamino}-ethyl)-7-fluoro-4-methoxy-1H-indole-2-carbonitrile], for which the IC50 is 90 nM against PTGER2 (EP2) (setting [1]) and 194 nM against PTRGER4 (EP4) (setting [2]).

`COc1cccc2c1cc(C)n2CCNc1cc(-c2ccc3c(c2)C(C)NC3=O)ncn1` (racemic) [compound 86]: the IC50 stood at 12 nM at PTGER2 (EP2) (setting [3]) and 873 nM against PTRGER4 (EP4) (setting [4]).

`Cc1ccc(F)c2c1cc(C)n2CCNc1cc(-c2ccc3c(c2)C(C)NC3=O)ncn1` (racemic) [compound 96]: the IC50 is 17 nM against PTGER2 (EP2) (setting [3]) and 572 nM against PTRGER4 (EP4) (setting [4]).

As for `CCC1NC(=O)c2ccc(-c3cc(NCCn4c(C)cc5c(OC)cccc54)ncn3)cc21` (racemic) [compound 196], the values for the IC50 against PTGER2 (EP2) (setting [3]) and against PTRGER4 (EP4) (setting [4]) were 12 nM and 224 nM, respectively.

With `COc1ccc(F)c2c1cc(C)n2CCNc1cc(-c2ccc3c(c2)C(C)NC3=O)ncn1` (racemic) [compound 203], the values for the IC50 against PTGER2 (EP2) (setting [3]) and against PTRGER4 (EP4) (setting [4]) were 14 nM and 324 nM, respectively.

For `CCC1NC(=O)c2ccc(-c3cc(NCCn4c(C)cc5c(C)ccc(F)c54)ncn3)cc21` (racemic) [compound 207], the IC50 at PTGER2 (EP2) (setting [3]) turned out to be 19 nM; at PTRGER4 (EP4) (setting [4]), 645 nM.

On to `CCCC1NC(=O)c2ccc(-c3cc(NCCn4c(C)cc5c(OC)cccc54)ncn3)cc21` (racemic) [compound 314], for which the IC50 was found to be 15 nM at PTGER2 (EP2) (setting [3]) and 303 nM at PTRGER4 (EP4) (setting [4]).

As for `CCC1NC(=O)c2ccc(-c3cc(NCCn4c(C)cc5c(OC)ccc(F)c54)ncn3)cc21` (racemic) [compound 319], the IC50 was 10 nM against PTGER2 (EP2) (setting [3]) and 296 nM at PTRGER4 (EP4) (setting [4]).

In the case of `CCCC1NC(=O)c2ccc(-c3cc(NCCn4c(C)cc5c(C)ccc(F)c54)ncn3)cc21` (racemic) [compound 322], the IC50 on PTGER2 (EP2) (setting [3]) was 55 nM; on PTRGER4 (EP4) (setting [4]), 295 nM.

Values taken from patent publication US12011444B2, “N-substituted indole derivatives as PGE2 receptor modulators” (Idorsia Pharmaceuticals Ltd, priority 2015, dated 2024).
